Experimental data reported in ChEMBL document CHEMBL4834496 (ACS Med Chem Lett, 2021).

How the values were obtained:
[1] = molecular target: T1, Botulinum neurotoxin type A (Clostridium botulinum, UniProt P0DPI0); assay: Inhibition of Clostridium botulinum BoNT/A using SNAP-25 (66-mer) as substrate by LC-MS analysis
[2] = molecular target: T1, Botulinum neurotoxin type A; assay: Inhibition of Clostridium botulinum BoNT/A light chain

T1 sequence (P0DPI0 2-448 limits assumed): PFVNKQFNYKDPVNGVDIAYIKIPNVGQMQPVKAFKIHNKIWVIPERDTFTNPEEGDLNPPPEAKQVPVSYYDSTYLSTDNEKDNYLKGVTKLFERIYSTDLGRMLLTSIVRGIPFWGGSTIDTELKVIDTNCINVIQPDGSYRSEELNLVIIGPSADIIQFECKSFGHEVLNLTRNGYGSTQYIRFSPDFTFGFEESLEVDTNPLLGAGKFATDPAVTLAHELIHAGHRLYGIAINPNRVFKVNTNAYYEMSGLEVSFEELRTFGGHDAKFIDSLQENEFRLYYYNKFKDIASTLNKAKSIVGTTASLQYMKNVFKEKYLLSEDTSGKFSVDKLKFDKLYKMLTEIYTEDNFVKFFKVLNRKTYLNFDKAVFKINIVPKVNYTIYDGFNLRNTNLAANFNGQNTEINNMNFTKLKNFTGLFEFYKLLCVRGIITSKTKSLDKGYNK

| Compound | IC50 [1] | Ki [2] |
| --- | --- | --- |
| O=C(C[C@@H](CCO)c1ccc(Cl)cc1Cl)NO | 1 µM | – |
| N=C(N)NCCC[C@H](N)C(=O)NO | – | 60 µM |
| O=C(C[C@H](CCO)c1ccc(Cl)cc1)NO | 36 µM | – |
| O=C(C[C@H](CCO)c1ccc(Cl)cc1Cl)NO | 21 µM | – |
| O=C(C[C@@H](CCO)c1ccc(Cl)cc1)NO | 8 µM | – |
